Experimental data from US20050282755A1, “Compositions having antimicrobial activity and uses thereof” (priority 2004, published 2005).
Values after ≈ are worked out from the molar mass of the structure shown. Starred links: 1 amine or outer side, 2 acyl side, 3 side chain; linkers in the order of their positions; H or OH if unused. Non-standard residues stand in square brackets, D forms with d. Residues, ends and D or L forms follow the SMILES beside them. *: point of attachment. 1Nal = N[C@@H](Cc1cccc2ccccc12)C(=O)O; d(hArg) = N=C(N)NCCCC[C@@H](N)C(=O)O; Ethylenediamine = C(CN[*:2])N[*:1]; Stearoyl = CCCCCCCCCCCCCCCCCC(=O)*; Palmitoyl = CCCCCCCCCCCCCCCC(=O)*; Lauroyl = CCCCCCCCCCCC(=O)*; Hexanoyl = CCCCCC(=O)*

What was measured:
Type in all cases: cell-based
Salmonella dublin (Lane) = test: MIC, NCCLS M7-A6 broth microdilution (Table 9, no superscript)
How it was run: (§1)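 Log-phase bacteria were added to wells containing peptide in cation-adjusted Mueller Hinton broth at a final 5×10^5 to 1×10^6 CFU/milliliter. Plates then sat overnight at 37° C. Wells were scored visually for turbidity against a peptide-free control.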

[1] = system: Escherichia coli ATCC 25922; test: as above; details: ATCC 25922
How it was run: as §1

[2] = system: Staphylococcus epidermidis ATCC 12228; test: as above; details: ATCC 12228
How it was run: as §1

[3] = system: Pseudomonas aeruginosa ATCC 27853; test: as above; details: ATCC 27853
How it was run: as §1

[4] = system: Staphylococcus aureus ATCC 29213; test: MIC, NCCLS M7-A6 broth microdilution, cation-adjusted Mueller Hinton broth (Table 9, no superscript); details: ATCC 29213
How it was run: as §1

Row | MIC S. dublin (Salmonella dublin (Lane)) | MIC E. coli [1] | MIC S. epidermidis [2] | MIC P. aeruginosa [3] | MIC S. aureus [4] | Compound
1 | 32 µg/mL (≈ 10.2 µM) | 64 µg/mL (≈ 20.3 µM) | 64 µg/mL (≈ 20.3 µM) | >64 µg/mL | 64 µg/mL (≈ 20.3 µM) | CCCCCCCCCCCCCCCCCC(=O)N[C@@H](C(=O)N[C@H](CCCNC(=N)N)C(=O)N[C@@H](C(=O)N[C@H](CO)C(=O)N[C@H](CCCNC(=N)N)C(=O)N[C@@H](C(=O)NCC(=O)N[C@H](CCCNC(=N)N)C(=O)N[C@H](CO)C(=O)N[C@H](CCCNC(=N)N)C(=O)N[C@H](Cc1c[nH]c2ccccc12)C(=O)N[C@H](CCCNC(=N)N)C(=O)N[C@H](CC(=O)O)C(=O)N[C@H](Cc1c[nH]c2ccccc12)C(=O)N[C@H](CO)C(=O)N[C@H](CCCNC(=N)N)C(=O)N[C@H](CC(N)=O)C(=O)N[C@H](Cc1ccccc1)C(=O)N[C@H](CCSC)C(=O)N[C@H](CCCNC(=N)N)C(=O)N[C@H](C)C(=O)N[C@H](C)C(=O)N[C@@H](CCCCN)C(N)=O)[C@H](C)O)C(C)C)[C@H](C)O [Peptide 81, Stearyl-trvsrtgrsrwrdwsrnfmraaK-NH2] (Stearoyl-[dT][dR][dV][dS][dR][dT]G[dR][dS][dR][dW][dR][dD][dW][dS][dR][dN][dF][dM][dR][dA][dA]K-NH2)
2 | >64 µg/mL | >64 µg/mL | 16 µg/mL (≈ 8.52 µM) | >64 µg/mL | >64 µg/mL | CSCC[C@H](NC(=O)[C@H](Cc1ccccc1)NC(=O)[C@H](CC(N)=O)NC(=O)[C@H](CCCNC(=N)N)NC(=O)[C@H](C)NC(=O)[C@H](Cc1c[nH]c2ccccc12)NC(=O)[C@H](CC(=O)O)NC(=O)[C@H](CCCNC(=N)N)NC(=O)[C@H](Cc1c[nH]c2ccccc12)NC(=O)[C@H](CCCNC(=N)N)NC(=O)[C@H](CO)NC(=O)[C@H](CCCNC(=N)N)NC(C)=O)C(=O)N[C@@H](CCCNC(=N)N)C(N)=O [Peptide 94, Ac-RSRWRDWARNFMR-NH2] (Ac-RSRWRDWARNFMR-NH2)
3 | 8 µg/mL (≈ 3.89 µM) | 64 µg/mL (≈ 31.1 µM) | 4 µg/mL (≈ 1.94 µM) | >64 µg/mL | 32 µg/mL (≈ 15.6 µM) | CCCCCCCCCCCC(=O)N[C@@H](CCCNC(=N)N)C(=O)N[C@@H](CO)C(=O)N[C@@H](CCCNC(=N)N)C(=O)N[C@@H](Cc1c[nH]c2ccccc12)C(=O)N[C@@H](CCCNC(=N)N)C(=O)N[C@@H](CC(=O)O)C(=O)N[C@H](C(=O)N[C@@H](Cc1cccc2ccccc12)C(=O)N[C@@H](CCCNC(=N)N)C(=O)N[C@@H](CC(N)=O)C(=O)N[C@@H](Cc1ccccc1)C(=O)N[C@@H](CCSC)C(=O)N[C@@H](CCCNC(=N)N)C(N)=O)C(C)C [Peptide 151, Lauryl-RSRWRDVZRNFMR-NH2 Z = 1-naphthylalanine] (Lauroyl-RSRWRDV[1Nal]RNFMR-NH2)
4 | 64 µg/mL (≈ 31.4 µM) | 32 µg/mL (≈ 15.7 µM) | 8 µg/mL (≈ 3.92 µM) | 64 µg/mL (≈ 31.4 µM) | 8 µg/mL (≈ 3.92 µM) | CCCCCCCCCCCC(=O)N[C@@H](CCCNC(=N)N)C(=O)N[C@@H](CO)C(=O)N[C@@H](CCCNC(=N)N)C(=O)N[C@@H](Cc1cccc2ccccc12)C(=O)N[C@@H](CCCNC(=N)N)C(=O)N[C@@H](CC(=O)O)C(=O)N[C@@H](Cc1cccc2ccccc12)C(=O)N[C@@H](C)C(=O)N[C@@H](CCCNC(=N)N)C(=O)N[C@@H](CC(N)=O)C(=O)N[C@@H](Cc1ccccc1)C(=O)N[C@@H](CCSC)C(=O)N[C@@H](CCCNC(=N)N)C(N)=O [Peptide 153, Lauryl-RSRZRDZARNFMR-NH2 Z = 1-naphthylalanine] (Lauroyl-RSR[1Nal]RD[1Nal]ARNFMR-NH2)
5 | 8 µg/mL (≈ 4.02 µM) | 64 µg/mL (≈ 32.1 µM) | 8 µg/mL (≈ 4.02 µM) | >64 µg/mL | 4 µg/mL (≈ 2.01 µM) | CCCCCCCCCCCC(=O)N[C@@H](CCCNC(=N)N)C(=O)N[C@@H](CO)C(=O)N[C@@H](CCCNC(=N)N)C(=O)N[C@@H](Cc1cccc2ccccc12)C(=O)N[C@@H](CCCNC(=N)N)C(=O)N[C@@H](CC(=O)O)C(=O)N[C@H](C(=O)N[C@@H](C)C(=O)N[C@@H](CCCNC(=N)N)C(=O)N[C@@H](CC(N)=O)C(=O)N[C@@H](Cc1cccc2ccccc12)C(=O)N[C@@H](CCSC)C(=O)N[C@@H](CCCNC(=N)N)C(N)=O)C(C)C [Peptide 154, Lauryl-RSRZRDVARNZMR-NH2 Z = 1-naphthylalanine] (Lauroyl-RSR[1Nal]RDVARN[1Nal]MR-NH2)
6 | 16 µg/mL (≈ 7.65 µM) | >64 µg/mL | 16 µg/mL (≈ 7.65 µM) | >64 µg/mL | 64 µg/mL (≈ 30.6 µM) | CCCCCCCCCCCC(=O)N[C@@H](CCCNC(=N)N)C(=O)N[C@@H](CO)C(=O)N[C@@H](CCCNC(=N)N)C(=O)N[C@@H](Cc1cccc2ccccc12)C(=O)N[C@@H](CCCNC(=N)N)C(=O)N[C@@H](CC(=O)O)C(=O)N[C@@H](Cc1cccc2ccccc12)C(=O)N[C@@H](C)C(=O)N[C@@H](CCCNC(=N)N)C(=O)N[C@@H](CC(N)=O)C(=O)N[C@@H](Cc1cccc2ccccc12)C(=O)N[C@@H](CCSC)C(=O)N[C@@H](CCCNC(=N)N)C(N)=O [Peptide 155, Lauryl-RSRZRDZARNZMR-NH2 Z = 1-naphthylalanine] (Lauroyl-RSR[1Nal]RD[1Nal]ARN[1Nal]MR-NH2)
7 | 8 µg/mL (≈ 3.85 µM) | 64 µg/mL (≈ 30.8 µM) | 16 µg/mL (≈ 7.69 µM) | >64 µg/mL | 32 µg/mL (≈ 15.4 µM) | CCCCCCCCCCCC(=O)N[C@@H](CCCNC(=N)N)C(=O)N[C@@H](CO)C(=O)N[C@@H](CCCNC(=N)N)C(=O)N[C@@H](Cc1c[nH]c2ccccc12)C(=O)N[C@@H](CCCNC(=N)N)C(=O)N[C@@H](CC(=O)O)C(=O)N[C@@H](Cc1cccc2ccccc12)C(=O)N[C@@H](C)C(=O)N[C@@H](CCCNC(=N)N)C(=O)N[C@@H](CC(N)=O)C(=O)N[C@@H](Cc1cccc2ccccc12)C(=O)N[C@@H](CCSC)C(=O)N[C@@H](CCCNC(=N)N)C(N)=O [Peptide 156, Lauryl-RSRWRDZARNZMR-NH2 Z = 1-naphthylalanine] (Lauroyl-RSRWRD[1Nal]ARN[1Nal]MR-NH2)
8 | 64 µg/mL (≈ 32 µM) | 16 µg/mL (≈ 7.99 µM) | 8 µg/mL (≈ 4 µM) | 32 µg/mL (≈ 16 µM) | 8 µg/mL (≈ 4 µM) | CCCCCCCCCCCC(=O)N[C@H](CCCCNC(=N)N)C(=O)N[C@H](CO)C(=O)N[C@H](CCCCNC(=N)N)C(=O)N[C@H](Cc1c[nH]c2ccccc12)C(=O)N[C@H](CCCCNC(=N)N)C(=O)N[C@H](CC(=O)O)C(=O)N[C@@H](C(=O)N[C@H](C)C(=O)N[C@H](CCCCNC(=N)N)C(=O)N[C@H](CC(N)=O)C(=O)N[C@H](Cc1ccccc1)C(=O)N[C@H](CCSC)C(=O)N[C@H](CCCCNC(=N)N)C(N)=O)C(C)C [Peptide 159, Lauryl-xsxwxdvaxnfmx-NH2 x = D-homoarginine] (Lauroyl-[d(hArg)][dS][d(hArg)][dW][d(hArg)][dD][dV][dA][d(hArg)][dN][dF][dM][d(hArg)]-NH2)
9 | >64 µg/mL | 16 µg/mL (≈ 9.11 µM) | 4 µg/mL (≈ 2.28 µM) | >64 µg/mL | 8 µg/mL (≈ 4.55 µM) | CCCCCCCCCCCC(=O)N[C@@H](CCCNC(=N)N)C(=O)N[C@@H](CO)C(=O)N[C@@H](CCCNC(=N)N)C(=O)N[C@@H](Cc1c[nH]c2ccccc12)C(=O)N[C@@H](CCCNC(=N)N)C(=O)N[C@@H](CC(=O)O)C(=O)N[C@H](C(=O)N[C@@H](C)C(=O)N[C@@H](CCCNC(=N)N)C(=O)N[C@@H](CC(N)=O)C(=O)N[C@@H](Cc1ccccc1)C(=O)N[C@@H](CC(C)C)C(N)=O)C(C)C [Peptide 161, Lauryl-RSRWRDVARNFL-NH2] (Lauroyl-RSRWRDVARNFL-NH2)
10 | 16 µg/mL (≈ 9.11 µM) | 32 µg/mL (≈ 18.2 µM) | 8 µg/mL (≈ 4.55 µM) | >64 µg/mL | 4 µg/mL (≈ 2.28 µM) | CCCCCCCCCCCC(=O)N[C@@H](CO)C(=O)N[C@@H](CCCNC(=N)N)C(=O)N[C@@H](Cc1c[nH]c2ccccc12)C(=O)N[C@@H](CCCNC(=N)N)C(=O)N[C@@H](CC(=O)O)C(=O)N[C@H](C(=O)N[C@@H](C)C(=O)N[C@@H](CCCNC(=N)N)C(=O)N[C@@H](CC(N)=O)C(=O)N[C@@H](Cc1ccccc1)C(=O)N[C@@H](CC(C)C)C(=O)N[C@@H](CCCNC(=N)N)C(N)=O)C(C)C [Peptide 162, Lauryl-SRWRDVARNFLR-NH2] (Lauroyl-SRWRDVARNFLR-NH2)
11 | >64 µg/mL | >64 µg/mL | 64 µg/mL (≈ 31.8 µM) | >64 µg/mL | >64 µg/mL | CCCCCCCCCCCCCCCC(=O)NCCNC(=O)[C@H](CCCNC(=N)N)NC(=O)[C@H](CC(C)C)NC(=O)[C@H](Cc1ccccc1)NC(=O)[C@H](CC(N)=O)NC(=O)[C@H](CCCNC(=N)N)NC(=O)[C@H](C)NC(=O)[C@@H](NC(=O)[C@H](CC(=O)O)NC(=O)[C@H](CCCNC(=N)N)NC(=O)[C@H](Cc1c[nH]c2ccccc12)NC(=O)[C@H](CCCNC(=N)N)NC(=O)[C@H](CO)NC(=O)[C@@H](N)CCCNC(=N)N)C(C)C [Peptide 172, H2N-RSRWRDVARNFLR-Ethylamidopalmitoyl] (H-RSRWRDVARNFLR-{Ethylenediamine-Palmitoyl}; C-terminus assumed)
12 | 16 µg/mL (≈ 8.17 µM) | 8 µg/mL (≈ 4.09 µM) | 2 µg/mL (≈ 1.02 µM) | 16 µg/mL (≈ 8.17 µM) | >64 µg/mL | CCCCCC(=O)NCCCC[C@H](NC(=O)[C@H](CCCNC(=N)N)NC(=O)[C@H](CC(C)C)NC(=O)[C@H](Cc1ccccc1)NC(=O)[C@H](CC(N)=O)NC(=O)[C@H](CCCNC(=N)N)NC(=O)[C@H](C)NC(=O)[C@@H](NC(=O)[C@H](CC(=O)O)NC(=O)[C@H](CCCNC(=N)N)NC(=O)[C@H](Cc1c[nH]c2ccccc12)NC(=O)[C@H](CCCNC(=N)N)NC(=O)[C@H](CO)NC(=O)[C@@H](N)CCCNC(=N)N)C(C)C)C(N)=O [Peptide 178, H2N-RSRWRDVARNFLRK(Hexanyl)-NH2] (H-RSRWRDVARNFLRK(Hexanoyl)-NH2)
